Experiments:
[1] = in vivo
[2] = cited from earlier work
[3] = type: in vivo; details: rats; in combination with piperine

Row | SMILES | bioavailability of the drugs in blood [1] | solubility in organic solvents ([2]; benzene, chlorform, ether, ethyl acetate, dichloromethane, alcohol, acetic acid) | solubility in pet. ether ([2]; pet. ether) | solubility in water ([2]; water) | AUC compared to drugs without piperine in equivalent doses [3] | plasma levels [3] | bioavailability in combination with piperine [1]
1 | O=C(/C=C/C=C/c1ccc2c(c1)OCO2)N1CCCCC1 [Piperine, (E, E) 1-[5-(1,3-benzodioxyl-5-yl)-1-oxo-2,4-pentadenyl] piperidine] | increase in the bioavailability | soluble | insoluble | insoluble |  |  | 
2 | NNC(=O)c1ccncc1 [isoniazid] |  |  |  |  | very high AUC | significant increase | 
3 | NC(=O)c1cnccn1 [pyrazinamide] |  |  |  |  | very high AUC | significant increase | 
4 | CO[C@H]1/C=C/O[C@@]2(C)Oc3c(C)c(O)c4c(O)c(c(/C=N/N5CCN(C)CC5)c(O)c4c3C2=O)NC(=O)/C(C)=C\C=C\[C@H](C)[C@H](O)[C@@H](C)[C@@H](O)[C@@H](C)[C@H](OC(C)=O)[C@@H]1C [rifampicin] |  |  |  |  | very high AUC | significant increase | significantly increasing the bioavailability
